Data reported in patent US20250221988A1 (Cullgen (Shanghai), Inc., priority 2022, published 2025).
Read-outs that look alike come from different tables or passages of the source.

Experiments:
MV4;11 cells = test: Cell viability assay (CellTiter-Glo) in MV4;11 cells; type: cell-based; settings: read-out: MV4
Experimental: (§1) Cell Culture: RS4;11, MV4;11, MOLM-13 and other cells were cultured at 37° C. with 5% CO2 in RPMI 1640 or DMEM Medium supplemented with 10% fetal bovine serum. Cells were authenticated using the short tandem repeat (STR) assays. Mycoplasma test results were negative.
(§2) Cell viability assays: Cells were seeded at a density of 5000 cells per well in 96-well assay plates and treated with test compounds following a 8-point or 12-point 3-fold serial dilution. Three days later, cell viability was determined using the CellTiter-Glo assay kit according to the manufacturer's instructions. The dose-response curves were determined and IC50 values were calculated using the GraphPad Prism software following a nonlinear regression (least squares fit) method.
The IC50 values (nM) of each compound were determined in MV4;11 and MOLM-13 cells with or without gilteritinib (10 nM for MV4;11; and 20 nM for MOML-13) as described in the Materials and Methods subsection and calculated using the GraphPad Prism 5.0 software.

MOLM-13 cells = test: Cell viability assay (CellTiter-Glo) in MOLM-13 cells; type: cell-based
Experimental: as §1
as §2, with “method. […]” for “method.”

[1] = Homo sapiens, MV4-11, 72 h, MV4;11 cells, compound alone, three days, 11 IC50
[2] = MV4;11 cells, with 10 nM gilteritinib, three days, 11 IC50 (nM) + 10 nM Gil
[3] = Homo sapiens, 72 h, MOLM-13 cells, compound alone, three days, read-out: MOLM-13 IC50
[4] = MOLM-13 cells, with gilteritinib, three days, read-out: MOLM-13 IC50 (nM) + 10 nM Gil
[5] = Homo sapiens, MV4-11, 72 h, 11 IC50 (nM)
[6] = 11 IC50 (nM) + 10 nM Gil, MV4;11 cells, with 10 nM gilteritinib, three days
[7] = Homo sapiens, MOLM-13, 72 h, read-out: MOLM-13 IC50 (nM)
[8] = read-out: MOLM-13 IC50 (nM) + 10 nM Gil, MOLM-13 cells, with gilteritinib, three days

| Compound | IC50 (MV4;11 cells; [1]) | IC50 (MV4;11 cells; [2]) | IC50 (MOLM-13 cells; [3]) | IC50 (MOLM-13 cells; [4]) | IC50 (MV4;11 cells; [5]) | IC50 (MV4;11 cells; [6]) | IC50 (MOLM-13 cells; [7]) | IC50 (MOLM-13 cells; [8]) |
| --- | --- | --- | --- | --- | --- | --- | --- | --- |
| O=C1CCC(N2C(=O)c3ccc(NC[C@H]4C[C@H](n5cc(-c6cccc(N7CCCC7)n6)c(C6CC6)n5)C4)cc3C2=O)C(=O)N1 (relative stereo) [GS-748, 5-(((Trans-3-(3-cyclopropyl-4-(6-(pyrrolidin-1-yl)pyridin-2-yl)-1H-pyrazol-1-yl)cyclobutyl)methyl)amino)-2-(2,6-dioxopiperidin-3-yl)isoindoline-1,3-dione] | 10 to 100 nM | < 10 nM | 10 to 100 nM | < 10 nM |  |  |  |  |
| Cn1ncc2cnc(-c3cn([C@H]4C[C@H](CNc5ccc6c(c5)C(=O)N(C5CCC(=O)NC5=O)C6=O)C4)nc3C(F)F)cc21 (stereo partly drawn) [GS-657, 5-(((Trans-3-(3-(difluoromethyl)-4-(1-methyl-1H-pyrazolo[4,3-c]pyridin-6-yl)-1H-pyrazol-1-yl)cyclobutyl)methyl)amino)-2-(2,6-dioxopiperidin-3-yl)isoindoline-1,3-dione] | 10 to 100 nM | < 10 nM | 10 to 100 nM | < 10 nM |  |  |  |  |
| CC(C)n1cnc2cnc(-c3cn([C@H]4C[C@H](CNc5ccc6c(c5)C(=O)N(C5CCC(=O)NC5=O)C6=O)C4)nc3C3CC3)cc21 (stereo partly drawn) [GS-664, 5-(((Trans-3-(3-cyclopropyl-4-(1-isopropyl-1H-imidazo[4,5-c]pyridin-6-yl)-1H-pyrazol-1-yl)cyclobutyl)methyl)amino)-2-(2,6-dioxopiperidin-3-yl)isoindoline-1,3-dione] |  |  |  |  | > 1000 nM | 100 to 1000 nM | > 1000 nM | 100 to 1000 nM |
| O=C1CCC(N2C(=O)c3ccc(NC[C@H]4C[C@H](n5cc(-c6ncccc6C6CCNCC6)c(C6CC6)n5)C4)cc3C2=O)C(=O)N1 (stereo partly drawn) [GS-665, 5-(((Trans-3-(3-cyclopropyl-4-(3-(piperidin-4-yl)pyridin-2-yl)-1H-pyrazol-1-yl)cyclobutyl)methyl)amino)-2-(2,6-dioxopiperidin-3-yl)isoindoline-1,3-dione] | > 1000 nM |  | > 1000 nM |  |  |  |  |  |
| Cc1nc(-c2cn([C@H]3C[C@H](CNc4ccc5c(c4)CN(C4CCC(=O)NC4=O)C5=O)C3)nc2C(F)F)ccc1F (stereo partly drawn) [GS-677, 3-(5-(((Trans-3-(3-(difluoromethyl)-4-(5-fluoro-6-methylpyridin-2-yl)-1H-pyrazol-1-yl)cyclobutyl)methyl)amino)-1-oxoisoindolin-2-yl)piperidine-2,6-dione] | < 10 nM | < 10 nM | < 10 nM | < 10 nM |  |  |  |  |
| O=C1CCC(N2C(=O)c3cc(F)c(NCCC[C@H]4C[C@H](n5cc(-c6cnc7ccccc7n6)c(C6CC6)n5)C4)cc3C2=O)C(=O)N1 (stereo partly drawn) [GS-718, 5-((3-(Trans-3-(3-cyclopropyl-4-(quinoxalin-2-yl)-1H-pyrazol-1-yl)cyclobutyl)propyl)amino)-2-(2,6-dioxopiperidin-3-yl)-6-fluoroisoindoline-1,3-dione] | > 1000 nM |  | > 1000 nM |  |  |  |  |  |
| Cn1ncc2cnc(-c3cn([C@H]4C[C@H](CNc5ccc6c(c5)CN(C5CCC(=O)NC5=O)C6=O)C4)nc3C3CC3)cc21 (stereo partly drawn) [GS-678, 3-(5-(((Trans-3-(3-cyclopropyl-4-(1-methyl-1H-pyrazolo[4,3-c]pyridin-6-yl)-1H-pyrazol-1-yl)cyclobutyl)methyl)amino)-1-oxoisoindolin-2-yl)piperidine-2,6-dione] | < 10 nM | < 10 nM | < 10 nM | < 10 nM |  |  |  |  |
| CC(C)n1ncc2cnc(-c3cn([C@H]4C[C@H](CNc5ccc6c(c5)C(=O)N(C5CCC(=O)NC5=O)C6=O)C4)nc3C(F)F)cc21 (stereo partly drawn) [GS-656, 5-(((Trans-3-(3-(difluoromethyl)-4-(1-isopropyl-1H-pyrazolo[4,3-c]pyridin-6-yl)-1H-pyrazol-1-yl)cyclobutyl)methyl)amino)-2-(2,6-dioxopiperidin-3-yl)isoindoline-1,3-dione] | 10 to 100 nM | 10 to 100 nM | 100 to 1000 nM | 10 to 100 nM |  |  |  |  |
| Cc1nc(-c2cn(CC3CC3CNc3ccc4c(c3)C(=O)N(C3CCC(=O)NC3=O)C4=O)nc2C2CC2)ccc1F (stereo not drawn) [GS-645, 5-(((2-((3-Cyclopropyl-4-(5-fluoro-6-methylpyridin-2-yl)-1H-pyrazol-1-yl)methyl)cyclopropyl)methyl)amino)-2-(2,6-dioxopiperidin-3-yl)isoindoline-1,3-dione] | > 1000 nM |  | > 1000 nM | 100 to 1000 nM |  |  |  |  |
| Cc1nc(-c2cn([C@H]3C[C@H](C#Cc4ccc5c(c4)CN(C4CCC(=O)NC4=O)C5=O)C3)nc2C2CC2)ccc1F (stereo partly drawn) [GS-754, 3-(5-((Trans-3-(3-cyclopropyl-4-(5-fluoro-6-methylpyridin-2-yl)-1H-pyrazol-1-yl)cyclobutyl)ethynyl)-1-oxoisoindolin-2-yl)piperidine-2,6-dione] | > 1000 nM | 100 to 1000 nM | > 1000 nM | 100 to 1000 nM |  |  |  |  |
| CC(C)n1ncc2c(-c3cn([C@H]4C[C@H](CNc5ccc6c(c5)C(=O)N(C5CCC(=O)NC5=O)C6=O)C4)nc3C3CC3)ncc(F)c21 (stereo partly drawn) [GS-791, 5-(((Trans-3-(3-Cyclopropyl-4-(7-fluoro-1-isopropyl-1H-pyrazolo[4,3-c]pyridin-4-yl)-1H-pyrazol-1-yl)cyclobutyl)methyl)amino)-2-(2,6-dioxopiperidin-3-yl)isoindoline-1,3-dione] |  |  |  |  | < 10 nM | < 10 nM | 10 to 100 nM | 10 to 100 nM |

The next lines start with results.

| IC50 (MV4;11 cells; [1]) | IC50 (MV4;11 cells; [2]) | IC50 (MOLM-13 cells; [3]) | IC50 (MOLM-13 cells; [4]) | Compound | IC50 (MV4;11 cells; [5]) | IC50 (MV4;11 cells; [6]) | IC50 (MOLM-13 cells; [7]) | IC50 (MOLM-13 cells; [8]) |
| --- | --- | --- | --- | --- | --- | --- | --- | --- |
| 10 to 100 nM | < 10 nM | 10 to 100 nM | < 10 nM | N[C@H]1C[C@@H](n2ncc3cnc(-c4cn([C@H]5C[C@H](CNc6ccc7c(c6)C(=O)N(C6CCC(=O)NC6=O)C7=O)C5)nc4C4CC4)cc32)C1 (stereo partly drawn) [GS-778, 5-(((Trans-3-(4-(1-(cis-3-aminocyclobutyl)-1H-pyrazolo[4,3-c]pyridin-6-yl)-3-cyclopropyl-1H-pyrazol-1-yl)cyclobutyl)methyl)amino)-2-(2,6-dioxopiperidin-3-yl)isoindoline-1,3-dione] |  |  |  |  |
| < 10 nM | < 10 nM | < 10 nM | < 10 nM | O=C1CCC(N2C(=O)c3ccc(NC[C@H]4C[C@H](n5cc(-c6ncccc6OC6CC6)c(C6CC6)n5)C4)cc3C2=O)C(=O)N1 (stereo partly drawn) [GS-641, 5-(((Trans-3-(4-(3-cyclopropoxypyridin-2-yl)-3-cyclopropyl-1H-pyrazol-1-yl)cyclobutyl)methyl)amino)-2-(2,6-dioxopiperidin-3-yl)isoindoline-1,3-dione] |  |  |  |  |
| 100 to 1000 nM | 100 to 1000 nM | > 1000 nM | 100 to 1000 nM | O=C1CCC(N2C(=O)c3ccc(NC[C@H]4C[C@H](n5cc(Nc6ccccn6)c(C6CC6)n5)C4)cc3C2=O)C(=O)N1 (stereo partly drawn) [GS-669, 5-(((Trans-3-(3-cyclopropyl-4-(pyridin-2-ylamino)-1H-pyrazol-1-yl)cyclobutyl)methyl)amino)-2-(2,6-dioxopiperidin-3-yl)isoindoline-1,3-dione] |  |  |  |  |
| < 10 nM | < 10 nM | < 10 nM | < 10 nM | CC(C)n1ccc2c(-c3cn([C@H]4C[C@H](CNc5ccc6c(c5)C(=O)N(C5CCC(=O)NC5=O)C6=O)C4)nc3C3CC3)ncc(F)c21 (stereo partly drawn) [GS-769, 5-(((Trans-3-(3-cyclopropyl-4-(7-fluoro-1-isopropyl-1H-pyrrolo[3,2-c]pyridin-4-yl)-1H-pyrazol-1-yl)cyclobutyl)methyl)amino)-2-(2,6-dioxopiperidin-3-yl)isoindoline-1,3-dione] |  |  |  |  |
| > 1000 nM |  | > 1000 nM | 100 to 1000 nM | O=C1CCC(N2C(=O)c3ccc(NC[C@H]4C[C@H](n5nc(C6CC6)c6cncnc65)C4)cc3C2=O)C(=O)N1 (stereo partly drawn) [GS-663, 5-(((Trans-3-(3-cyclopropyl-1H-pyrazolo[3,4-d]pyrimidin-1-yl)cyclobutyl)methyl)amino)-2-(2,6-dioxopiperidin-3-yl)isoindoline-1,3-dione] |  |  |  |  |
| > 1000 nM | 100 to 1000 nM | > 1000 nM | 100 to 1000 nM | O=C1CCC(N2C(=O)c3ccc(NC[C@H]4C[C@H](n5cc(-c6cc7c(cn6)cnn7C6CNC6)c(C6CC6)n5)C4)cc3C2=O)C(=O)N1 (stereo partly drawn) [GS-675, 5-(((Trans-3-(4-(1-(azetidin-3-yl)-1H-pyrazolo[4,3-c]pyridin-6-yl)-3-cyclopropyl-1H-pyrazol-1-yl)cyclobutyl)methyl)amino)-2-(2,6-dioxopiperidin-3-yl)isoindoline-1,3-dione] |  |  |  |  |
| 10 to 100 nM | 10 to 100 nM | 100 to 1000 nM | 10 to 100 nM | Cn1ncc2nc(-c3cn([C@H]4C[C@H](CNc5ccc6c(c5)C(=O)N(C5CCC(=O)NC5=O)C6=O)C4)nc3C3CC3)ccc21 (stereo partly drawn) [GS-699, 5-(((Trans-3-(3-cyclopropyl-4-(1-methyl-1H-pyrazolo[4,3-b]pyridin-5-yl)-1H-pyrazol-1-yl)cyclobutyl)methyl)amino)-2-(2,6-dioxopiperidin-3-yl)isoindoline-1,3-dione] |  |  |  |  |
